In this assay the test system is L1210 leukemia ip in BDF1 mice, survival T/C. Briefly: NCI In Vivo Anticancer Drug Screen. Data for tumor model L1210 Leukemia (intraperitoneal) in B6D2F1 (BDF1) mice. The settings on record: endpoint: mean survival time, higher = longer survival. In short, it runs like this:
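Antitumor effect is assessed in tumor-bearing animals. Survival in the compound arm is compared with a vehicle-dosed control arm and expressed as their quotient.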

[1] abbreviates: dose: 100.0 mg/kg/injection, schedule: Q01DX009 (ip), vehicle: saline with Tween-80.
Where [2] appears, read: dose: 100.0 mg/kg/injection, schedule: Q04DX002 (ip), vehicle: Klucel (hydroxypropylcellulose) (HPC).
The mark [3] stands for this setting: dose: 100.0 mg/kg/injection, schedule: Q04DX003 (ip), vehicle: saline with Tween-80.
[4] abbreviates: dose: 200.0 mg/kg/injection, schedule: Q01DX009 (ip), vehicle: saline with Tween-80.
[5] abbreviates: dose: 200.0 mg/kg/injection, schedule: Q04DX002 (ip), vehicle: Klucel (hydroxypropylcellulose) (HPC).
Where [6] appears, read: dose: 200.0 mg/kg/injection, schedule: Q04DX003 (ip), vehicle: saline with Tween-80.
Where [7] appears, read: dose: 400.0 mg/kg/injection, schedule: Q01DX009 (ip), vehicle: saline with Tween-80.
Where [8] appears, read: dose: 400.0 mg/kg/injection, schedule: Q04DX003 (ip), vehicle: saline with Tween-80.
[9] abbreviates: dose: 100.0 mg/kg/injection, schedule: Q01DX001 (ip), vehicle: saline.
[10] abbreviates: dose: 100.0 mg/kg/injection, schedule: Q01DX001 (ip), vehicle: carboxymethylcellulose (CMC).
The mark [11] stands for this setting: dose: 200.0 mg/kg/injection, schedule: Q01DX001 (ip), vehicle: carboxymethylcellulose (CMC).
The mark [12] stands for this setting: dose: 100.0 mg/kg/injection, schedule: Q01DX009 (ip), vehicle: Klucel (hydroxypropylcellulose) (HPC).
The mark [13] stands for this setting: dose: 200.0 mg/kg/injection, schedule: Q01DX009 (ip), vehicle: Klucel (hydroxypropylcellulose) (HPC).
[14] abbreviates: dose: 400.0 mg/kg/injection, schedule: Q01DX009 (ip), vehicle: Klucel (hydroxypropylcellulose) (HPC).
[15] abbreviates: dose: 25.0 mg/kg/injection, schedule: Q04DX003 (ip), vehicle: saline with Tween-80.
The mark [16] stands for this setting: dose: 50.0 mg/kg/injection, schedule: Q04DX003 (ip), vehicle: saline with Tween-80.

For 23 molecules, T/C results are on record in PubChem BioAssay AID248 (DTP/NCI, 2004).

The structures appear in SMILES notation. Where “and” joins values, the source holds several entries; their conditions need not be identical. Equal entries are not always repeated. Toxic doses and inconclusive results are not listed.

As to `NC(Cc1ccc(O)cc1)C(=O)OCc1ccccc1` (stereo unspecified), the T/C reads like this: under setting [1], 88 % of control; under setting [2], 104 % of control; under setting [3], 97 % of control; under setting [4], 94 % of control; under setting [5], 96 % of control; under setting [6], 94 % of control. Also, the T/C by setting is: under setting [7], 91 % of control; (dose: 400.0 mg/kg/injection, schedule: Q04DX002 (ip), vehicle: Klucel (hydroxypropylcellulose) (HPC)) 96 % of control; under setting [8], 103 % of control.
`CC(=O)OC(C)C1C2=C(C(=O)CC1(C)O)C(=O)c1c(ccc(-c3ccc4c(c3O)C(=O)C3=C(C4=O)C(C(C)OC(C)=O)C(C)(O)CC3=O)c1O)C2=O` (stereo unspecified): the T/C is, setting by setting: (dose: 6.25 mg/kg/injection, schedule: Q01DX009 (ip), vehicle: saline with Tween-80) 111 % of control; (dose: 12.5 mg/kg/injection, schedule: Q01DX009 (ip), vehicle: saline with Tween-80) 109 % of control.
Turning to `CN=C(c1ccc(NC(=O)c2ccc(C(=O)Nc3ccc(C(=NC)N(C)C)cc3)c(Cl)c2)cc1)N(C)C`, the T/C (dose: 0.94 mg/kg/injection, schedule: Q01DX Z (ip), vehicle: saline) is 98 % of control and the T/C (dose: 1.88 mg/kg/injection, schedule: Q01DX Z (ip), vehicle: saline) is 87 % of control.
For the molecule `Cc1noc(-c2ccc([N+](=O)[O-])o2)n1`, the T/C is 94 % of control under setting [2] and 105 % of control under setting [5].
In the case of `O=[N+]([O-])c1ccc(O)c([N+](=O)[O-])c1`, the T/C was 94 % of control (dose: 3.35 mg/kg/injection, schedule: Q01DX Z (ip), vehicle: carboxymethylcellulose (CMC)); 95 % of control (dose: 10.32 mg/kg/injection, schedule: Q01DX Z (ip), vehicle: carboxymethylcellulose (CMC)); 98 % of control (dose: 13.4 mg/kg/injection, schedule: Q01DX Z (ip), vehicle: carboxymethylcellulose (CMC)); 94 % of control (dose: 17.86 mg/kg/injection, schedule: Q01DX Z (ip), vehicle: carboxymethylcellulose (CMC)); 88 % of control (dose: 26.8 mg/kg/injection, schedule: Q01DX Z (ip), vehicle: carboxymethylcellulose (CMC)); 94 % of control under setting [9].
`O=C(COc1ccccc1)NC(=S)Nc1ccc(C(=O)O)cc1`: the T/C (dose: 100.0 mg/kg/injection, schedule: Q01DX001 (ip), vehicle: saline with Tween-80) was 97 % of control; the T/C under setting [1] is 102 % of control and 89 % of control; the T/C (dose: 100.0 mg/kg/injection, schedule: Q04DX002 (ip), vehicle: saline with Tween-80) was 97 % of control and 104 % of control; the T/C (dose: 200.0 mg/kg/injection, schedule: Q01DX001 (ip), vehicle: saline with Tween-80) is 95 % of control; the T/C under setting [4] is 105 % of control and 86 % of control; the T/C (dose: 200.0 mg/kg/injection, schedule: Q04DX002 (ip), vehicle: saline with Tween-80) is 114 % of control and 90 % of control. Besides, the T/C is, setting by setting: (dose: 400.0 mg/kg/injection, schedule: Q01DX001 (ip), vehicle: saline with Tween-80) 101 % of control; under setting [7], 97 % of control and 89 % of control; (dose: 400.0 mg/kg/injection, schedule: Q04DX002 (ip), vehicle: saline with Tween-80) 107 % of control and 90 % of control.
On to `CCCCSCC(N)CO` (stereo unspecified), for which the T/C (dose: 100.0 mg/kg/injection, schedule: Q04DX003 (ip), vehicle: saline) was 101 % of control and the T/C (dose: 200.0 mg/kg/injection, schedule: Q04DX003 (ip), vehicle: saline) is 101 % of control.
Consider `CC1OCC(C[N+](C)(C)C)O1` (stereo unspecified), for which the T/C runs as follows: (dose: 0.09 mg/kg/injection, schedule: Q04DX002 (ip), vehicle: saline) 95 % of control; (dose: 0.18 mg/kg/injection, schedule: Q04DX002 (ip), vehicle: saline) 106 % of control; (dose: 0.37 mg/kg/injection, schedule: Q04DX002 (ip), vehicle: saline) 95 % of control; (dose: 0.75 mg/kg/injection, schedule: Q04DX002 (ip), vehicle: saline) 103 % of control and 109 % of control; (dose: 1.5 mg/kg/injection, schedule: Q04DX002 (ip), vehicle: saline) 100 % of control and 106 % of control.
Regarding `C=CCN(CC=C)P(=O)(N1CC1)N1CC1C` (stereo unspecified), the T/C by setting is: (dose: 0.37 mg/kg/injection, schedule: Q01DX015 (ip), vehicle: carboxymethylcellulose (CMC)) 117 % of control; (dose: 6.0 mg/kg/injection, schedule: Q01DX009 (ip), vehicle: saline) 90 % of control; (dose: 10.0 mg/kg/injection, schedule: Q01DX001 (ip), vehicle: saline) 162 % of control.
With `CC1=NN(c2ccccc2)C(=O)C1N=Nc1ccc(S(=O)(=O)Nc2cc(C)nc(C)n2)cc1` (stereo unspecified), the T/C by setting is: under setting [10], 98 % of control; under setting [11], 98 % of control; (dose: 400.0 mg/kg/injection, schedule: Q01DX001 (ip), vehicle: carboxymethylcellulose (CMC)) 95 % of control.
Turning to `CNCCc1ccccc1`, the T/C was 107 % of control under setting [9] and 108 % of control (dose: 200.0 mg/kg/injection, schedule: Q01DX001 (ip), vehicle: saline).
In the case of `CCCCCCCCCCCCCCCCCC(=O)c1ccccc1`, the T/C reads like this: under setting [12], 105 % of control; under setting [13], 105 % of control; under setting [14], 100 % of control.
Consider `CCSc1nc(C=O)c(Cc2ccc(Br)cc2)c(=O)[nH]1`, for which the T/C was 106 % of control under setting [3], 103 % of control under setting [6] and 106 % of control under setting [8].
`CCN(CC)CCCNC(C)=O`: the T/C (dose: 100.0 mg/kg/injection, schedule: Q01DX009 (ip), vehicle: saline) is 96 % of control and the T/C (dose: 200.0 mg/kg/injection, schedule: Q01DX009 (ip), vehicle: saline) is 98 % of control.
Take `COc1cccc(/C(C)=C2\SC(=S)NC2=O)c1`: the T/C under setting [10] was 100 % of control and the T/C under setting [11] was 94 % of control.
For `Nc1cc(Cl)c([N+](=O)[O-])c(N)n1`, the T/C (dose: 100.0 mg/kg/injection, schedule: Q01DX001 (ip), vehicle: Klucel (hydroxypropylcellulose) (HPC)) was 101 % of control; the T/C (dose: 200.0 mg/kg/injection, schedule: Q01DX001 (ip), vehicle: Klucel (hydroxypropylcellulose) (HPC)) is 106 % of control; the T/C (dose: 400.0 mg/kg/injection, schedule: Q01DX001 (ip), vehicle: Klucel (hydroxypropylcellulose) (HPC)) is 108 % of control.
Turning to `COC1(OC)C2(Cl)CC(c3ccc(Cl)cc3)C1(Cl)C(Cl)=C2Cl` (stereo unspecified), the T/C is, setting by setting: under setting [1], 110 % of control; (dose: 100.0 mg/kg/injection, schedule: Q04DX003 (ip), vehicle: Klucel (hydroxypropylcellulose) (HPC)) 98 % of control; under setting [4], 101 % of control; (dose: 200.0 mg/kg/injection, schedule: Q04DX003 (ip), vehicle: Klucel (hydroxypropylcellulose) (HPC)) 105 % of control; under setting [7], 100 % of control; (dose: 400.0 mg/kg/injection, schedule: Q04DX003 (ip), vehicle: Klucel (hydroxypropylcellulose) (HPC)) 104 % of control.
`C#CC1(NC(c2cc(Cl)cc(Cl)c2O)P(=O)(c2ccccc2)c2ccccc2)CCCCC1` (stereo unspecified): the T/C is 94 % of control under setting [12] and 102 % of control under setting [13].
Regarding `CCOC(=O)C(Cc1c[nH]c2ccccc12)(NC(C)=O)C(=O)OCC`, the T/C was 88 % of control under setting [1], 90 % of control under setting [4] and 94 % of control under setting [7].
Turning to `O=C(O)C(C(=O)O)C1Cc2cccc3cccc1c23` (stereo unspecified), the T/C is, setting by setting: under setting [15], 96 % of control; under setting [16], 98 % of control; under setting [3], 100 % of control.
In the case of `COc1cc(NC(=O)Nc2cccc(C(C)=O)c2)c(OC)cc1Cl`, the T/C reads like this: under setting [12], 116 % of control; under setting [13], 110 % of control; under setting [14], 110 % of control.
With `COC(=O)C12OCC34C(CC5C(C)=C(O)C(=O)CC5(C)C3C(O)C1O)OC(=O)C(OC(=O)C=C(C)C)C24` (stereo unspecified), the T/C is 94 % of control (dose: 0.78 mg/kg/injection, schedule: Q04DX002 (ip), vehicle: saline with Tween-80); 102 % of control (dose: 1.56 mg/kg/injection, schedule: Q04DX002 (ip), vehicle: saline with Tween-80); 105 % of control (dose: 3.13 mg/kg/injection, schedule: Q04DX002 (ip), vehicle: saline with Tween-80).
For `COc1ccc(/C=c2\[nH]c(=O)/c(=C/c3ccc(OC)c(OC)c3)[nH]c2=O)cc1OC`, the T/C under setting [15] is 92 % of control, the T/C under setting [16] was 89 % of control and the T/C under setting [3] is 86 % of control.
